Legend:
Format in all cases: functional
[1] = system: Botryosphaeria berengeriana; experiment: Antifungal activity against Physalospora piricola at 50 ug/ml
Fusarium graminearum = experiment: Antifungal activity against Gibberella zeae at 50 ug/ml
Botrytis cinerea = experiment: Antifungal activity against Botrytis cinereapers at 50 ug/ml
Thanatephorus cucumeris = experiment: Antifungal activity against Rhizoctonia solani at 50 ug/ml
Bipolaris maydis = experiment: Antifungal activity against Bipolaris maydis at 50 ug/ml

| Compound | inhibition at 50 µg/mL [1] [%] | inhibition at 50 µg/mL (Fusarium graminearum) [%] | inhibition at 50 µg/mL (Botrytis cinerea) [%] | inhibition at 50 µg/mL (Thanatephorus cucumeris) [%] | inhibition at 50 µg/mL (Bipolaris maydis) [%] |
| --- | --- | --- | --- | --- | --- |
| CO/N=C(/C(=O)OC)c1ccccc1CSc1nnc(-c2ccc(F)cc2)o1 | 100 | 98.6 | 100 | 97.9 | 91.7 |
| CO/N=C(/C(=O)OC)c1ccccc1CSc1nnc(-c2ccc(Br)cc2F)o1 | 100 | 85.7 | 100 | 97.9 | 92.9 |
| CO/N=C(/C(=O)OC)c1ccccc1CSc1nnc(-c2ccc(OC)cc2)o1 | 93.8 | 85.7 | 94.2 | 91.8 | 92.5 |
| CO/N=C(/C(=O)OC)c1ccccc1CSc1nnc(-c2ccccc2F)o1 | 100 | 98 | 97.6 | 92.6 | 92.3 |
| CO/N=C(/C(=O)OC)c1ccccc1CSc1nnc(-c2cc(Cl)ccc2Cl)o1 | 100 | 90.6 | 88.5 | 97 | 82.7 |
| CO/N=C(/C(=O)OC)c1ccccc1CSc1nnc(-c2cccc(Cl)c2)o1 | 92.6 | 96.9 | 85.4 | 94.4 | 90.9 |
| CO/N=C(/C(=O)OC)c1ccccc1CSc1nnc(-c2ccc([N+](=O)[O-])cc2)o1 | 96.3 | 92.5 | 88.5 | 85.9 | 86.4 |
| CO/N=C(/C(=O)OC)c1ccccc1CSc1nnc(-c2cc(F)c(Cl)cc2Cl)o1 | 100 | 88.6 | 98.8 | 97.8 | 81.6 |
| CO/N=C(/C(=O)OC)c1ccccc1CSc1nnc(-c2ccccc2)o1 | 94.9 | 79.4 | 97.6 | 92.4 | 88 |
| CO/N=C(/C(=O)OC)c1ccccc1CSc1nnc(-c2cccc(Cl)c2Cl)o1 | 96.7 | 84.3 | 83.3 | 91.6 | 84 |
| CO/N=C(/C(=O)OC)c1ccccc1COc1ccccc1C [KRESOXIM-METHYL] | 98.5 | 96.8 | 97.2 | 66.1 | 90.6 |
| CO/N=C(/C(=O)OC)c1ccccc1CSc1nnc(-c2cccc(F)c2F)o1 | 100 | 98.6 | 100 | 100 | 96.4 |
| CO/N=C(/C(=O)OC)c1ccccc1CSc1nnc(-c2ccc(C(F)(F)F)cc2)o1 | 100 | 93.8 | 84.6 | 95.6 | 81.8 |
| CO/N=C(/C(=O)OC)c1ccccc1CSc1nnc(-c2ccccc2I)o1 | 96.3 | 98.4 | 96.2 | 90.2 | 86.4 |
| CO/N=C(/C(=O)OC)c1ccccc1CSc1nnc(-c2ccc(Cl)cc2Cl)o1 | 88.9 | 74.3 | 98.8 | 92.6 | 85.7 |
| CO/N=C(/C(=O)OC)c1ccccc1CSc1nnc(-c2ccc(OCc3ccccc3)cc2)o1 | 96.9 | 89.2 | 90.6 | 98 | 95 |
